The text below walks through data of patent US20220304911A1, “ORAL CARE PRODUCT WITH CANNABINOID COMPOUNDS” (Demetrix, Inc., priority 2021, published 2022).

Converted amounts (≈) assume the structure as drawn. Where two headings read alike, the source gives them in different places.

In the assay the test system is Streptococcus mutans (S. mutans). Briefly: minimum inhibitory concentration (MIC) assay against S. mutans. The class given is cell-based. Here is the method: As used herein “minimum inhibitory concentration” or “MIC” refers to the lowest concentration (in μg/mL) of an antibiotic that inhibits the growth of a given strain of bacteria.
To determine the ability of the cannabinoid compounds described herein to reduce, or eliminate, S. mutans, a minimum inhibitory concentration (“MIC”) assay was performed. The assay was performed by Charles River Discovery Research Services UK Limited (Portishead, United Kingdom) in accordance with industry standards.

[1] abbreviates: Streptococcus mutans, read-out: minimum inhibitory concentration (MIC) against S. mutans.
Where [2] appears, read: S. mutans, assay performed by Charles River Discovery Research Services UK Limited.

For `CCCCCc1cc(O)c2c(c1)OC(C)(CCC=C(C)C)C=C2` (stereo not shown) [CBC, cannabichromene], the MIC is, setting by setting: (Streptococcus mutans) 25 µg/mL (≈ 79.5 µM); under setting [1], less than 25 µg/mL.
As for `CCCCCc1cc2c(c(O)c1C(=O)O)C=CC(C)(CCC=C(C)C)O2` (stereo not shown) [CBCA, cannabichromenic acid], under setting [2], the “MIC” value is more than 200 µg/mL.
Turning to `C=C(C)[C@@H]1CCC(C)=C[C@H]1c1c(O)cc(CCCCC)cc1O` [CBD, cannabidiol], the MIC (Streptococcus mutans, S. mutans, assay performed by Charles River Discovery Research Services UK Limited, read-out: MIC) was determined as 25 µg/mL (≈ 79.5 µM) and the MIC (Streptococcus mutans, S. mutans, summary statement in the description, read-out: minimum inhibitory concentration (MIC) against S. mutans) is less than 25 µg/mL.
Take `C=C(C)[C@@H]1CCC(C)=C[C@H]1c1c(O)cc(C)cc1O` [CBD-C1]: the “MIC” value under setting [2] was found to be 100 µg/mL (≈ 387 µM).
Still for that read-out and setting: the result for `C=C(C)[C@@H]1CCC(C)=C[C@H]1c1c(O)cc(CC)cc1O` [CBD-C2, cannabidiol ethyl] reads 25 µg/mL (≈ 91.8 µM); that for `C=C(C)[C@@H]1CCC(C)=C[C@H]1c1c(O)cc(CCCC)cc1O` [CBD-C4, cannabidibutol], 25 µg/mL (≈ 83.2 µM).
Take `C=C(C)[C@@H]1CCC(C)=C[C@H]1c1c(O)cc(CCCCC)c(C(=O)O)c1O` [CBDA, cannabidiolic acid]: the MIC (Streptococcus mutans) worked out at 25 µg/mL (≈ 69.7 µM) and the MIC under setting [1] is less than 25 µg/mL.
As for `C=C(C)[C@@H]1CCC(C)=C[C@H]1c1c(O)cc(CCC)cc1O` [CBDV, cannabidivarin], the MIC reads like this: (Streptococcus mutans) 25 µg/mL (≈ 87.3 µM); under setting [1], less than 25 µg/mL.
Turning to `C=C(C)[C@@H]1CCC(C)=C[C@H]1c1c(O)cc(CCC)c(C(=O)O)c1O` [CBDVA, cannabidivarinic acid], under setting [2], the “MIC” value came out at 25 µg/mL (≈ 75.7 µM).
As to `CCCCCc1cc(O)c(C/C=C(\C)CCC=C(C)C)c(O)c1` [CBG, cannabigerol], the MIC (Streptococcus mutans) is 25 µg/mL (≈ 79 µM) and the MIC under setting [1] was less than 25 µg/mL.
In the case of `CCCCc1cc(O)c(CC=C(C)CCC=C(C)C)c(O)c1` [CBG-C4, cannabigerol butyl], under setting [2], the “MIC” value is 25 µg/mL (≈ 82.7 µM).
On to `CCCCCc1cc(O)c(C/C=C(\C)CCC=C(C)C)c(O)c1C(=O)O` [CBGA, cannabigerolic acid], for which the MIC (Streptococcus mutans) came to 25 µg/mL (≈ 69.3 µM) and the MIC under setting [1] is less than 25 µg/mL.
`CCCCc1cc(O)c(C/C=C(\C)CCC=C(C)C)c(O)c1C(=O)O` [CBGA-C4, cannabigerolic acid butyl]: under setting [2], the “MIC” value stood at 12.5 µg/mL (≈ 36.1 µM).
As for `CCCc1cc(O)c(C/C=C(\C)CCC=C(C)C)c(O)c1` [CBGV, cannabigerovarin], the “MIC” value under setting [2] came out at 25 µg/mL (≈ 86.7 µM).
Turning to `CCCc1cc(O)c(C/C=C(\C)CCC=C(C)C)c(O)c1C(=O)O` [CBGVA, cannabigerovarinic acid], the “MIC” value under setting [2] was more than 200 µg/mL.
For `CCCCCc1cc(O)c2c(c1)OC1(C)CCC3C1C2C3(C)C` (stereo not shown) [CBL, cannabicyclol], the MIC (Streptococcus mutans) was more than 200 µg/mL and the MIC under setting [1] was more than 25 µg/mL.
Take `CCCCCc1cc2c(c(O)c1C(=O)O)C1C3C(CCC3(C)O2)C1(C)C` (stereo not shown) [CBLA, cannabicyclolic acid]: the “MIC” value under setting [2] is more than 200 µg/mL.
For the compound `CCCCCc1cc(O)c2c(c1)OC(C)(C)c1ccc(C)cc1-2` [CBN, cannabinol], the MIC runs as follows: (Streptococcus mutans) 50 µg/mL (≈ 161 µM); under setting [1], more than 25 µg/mL.
`CCCCCc1cc2c(c(O)c1C(=O)O)-c1cc(C)ccc1C(C)(C)O2` [CBNA, cannabinolic acid]: under setting [2], the “MIC” value was more than 200 µg/mL.
Regarding (+)-cannabidiol [(+)-CBD], the “MIC” value under setting [2] worked out at 25 µg/mL.
